Data as given in DBAASP.
Converted amounts (≈) assume the structure as drawn. Each block holds one compound with its values, some of them ahead of it.

Tests used:
Experiment in all cases: ≥ marks a high value that may be exact or a test limit, other limits are often not marked, values filed in µg/mL are converted to µM
[1] = tested on: Bacillus cereus ATCC 11778
[2] = tested on: Salmonella enterica subsp. enterica serovar Typhimurium ATCC 14028
[3] = tested on: Staphylococcus aureus ATCC 29213
[4] = tested on: Escherichia coli ATCC 25922
[5] = tested on: Klebsiella aerogenes ATCC 13048
[6] = tested on: Pseudomonas aeruginosa ATCC 27853
[7] = tested on: Candida albicans ATCC 90028
[8] = tested on: Acinetobacter baumannii ATCC 19606
[9] = tested on: Klebsiella pneumoniae ATCC 700603
[10] = tested on: Staphylococcus aureus ATCC 43300
[11] = tested on: Cryptococcus neoformans ATCC 208821
[12] = tested on: Staphylococcus aureus C623
[13] = tested on: Escherichia coli ESBL 63103
[14] = tested on: Pseudomonas aeruginosa H103
Candida albicans C627 = tested on: Candida albicans C627
[15] = tested on: Staphylococcus aureus ATCC 25923
[16] = tested on: Pseudomonas aeruginosa 213
[17] = tested on: Pseudomonas aeruginosa LES400
[18] = tested on: Enterococcus faecium mic80
Candida albicans = tested on: Candida albicans
Cryptococcus neoformans = tested on: Cryptococcus neoformans
Escherichia coli = tested on: Escherichia coli
Bacillus subtilis = tested on: Bacillus subtilis
Streptococcus pneumoniae = tested on: Streptococcus pneumoniae
Salmonella typhimurium = tested on: Salmonella typhimurium
Saccharomyces cerevisiae = tested on: Saccharomyces cerevisiae
Serratia marcescens = tested on: Serratia marcescens
Streptococcus mutans = tested on: Streptococcus mutans
Pseudomonas putida = tested on: Pseudomonas putida
Staphylococcus aureus = tested on: Staphylococcus aureus
[19] = tested on: Pseudomonas aeruginosa 919
[20] = tested on: Pseudomonas aeruginosa 910
[21] = tested on: Pseudomonas aeruginosa 253
[22] = tested on: Pseudomonas aeruginosa PAO1
Escherichia coli BW25113 = tested on: Escherichia coli BW25113
[23] = tested on: Enterococcus faecalis CIP 76.117

SMILES: CC(C)C[C@H](NC(=O)[C@H](Cc1c[nH]c2ccccc12)NC(=O)[C@H](CCCN=C(N)N)NC(=O)[C@H](Cc1c[nH]c2ccccc12)NC(=O)[C@H](Cc1c[nH]c2ccccc12)NC(=O)[C@H](CCCCN)NC(=O)[C@H](CCCCN)NC(=O)[C@H](Cc1c[nH]c2ccccc12)NC(=O)[C@@H](N)CCCN=C(N)N)C(=O)O [RWKKWWRWL]
MIC [12]: 2.77 µM (≈ 4 µg/mL)
MIC [13]: 11.1 µM (≈ 16 µg/mL)
MIC [14]: 1.38 µM (≈ 2 µg/mL)
MIC (Candida albicans C627): 2.77 µM (≈ 4 µg/mL)
MIC [15]: 2.77 µM (≈ 4 µg/mL)
MIC [16]: 11.1 µM (≈ 16 µg/mL)
MIC [17]: 11.1 µM (≈ 16 µg/mL)
MIC [18]: 11.1 µM (≈ 16 µg/mL)

SMILES: NCC(=O)N[C@@H](CCCN=C(N)N)C(=O)N[C@@H](CCCN=C(N)N)C(=O)NCC(=O)NCC(=O)N[C@@H](CCCN=C(N)N)C(=O)NCC(=O)NCC(=O)N[C@@H](CCCN=C(N)N)C(=O)NCC(=O)N[C@@H](CCCN=C(N)N)C(=O)NCC(=O)N[C@@H](CCCN=C(N)N)C(=O)O [GRRGGRGGRGRGR]
MIC [6]: > 23.6 µM
MIC [7]: 23.6 µM (≈ 32 µg/mL)
MIC [8]: > 23.6 µM
MIC [9]: > 23.6 µM
MIC [4]: > 23.6 µM
MIC [10]: > 23.6 µM
MIC [11]: 23.6 µM (≈ 32 µg/mL)

SMILES: CC[C@H](C)[C@H](N)C(=O)N[C@@H](CC(C)C)C(=O)N[C@@H](CCCCN)C(=O)N[C@@H](Cc1c[nH]c2ccccc12)C(=O)N[C@@H](CCCCN)C(=O)N[C@H](C(=O)N[C@@H](Cc1ccccc1)C(=O)N[C@@H](CCCCN)C(=O)N[C@@H](Cc1c[nH]c2ccccc12)C(=O)N[C@@H](CCCCN)C(=O)N[C@@H](Cc1c[nH]c2ccccc12)C(=O)N[C@@H](Cc1ccccc1)C(=O)N[C@@H](CCCN=C(N)N)C(N)=O)[C@@H](C)CC [ILKWKIFKWKWFR]
MIC [19]: ≥ 32 µM
MIC [20]: 4 µM (≈ 7.51 µg/mL)
MIC [21]: 11.3 µM (≈ 21.3 µg/mL)
MIC [22]: 2 µM (≈ 3.76 µg/mL)

SMILES: CC[C@H](C)[C@H](NC(=O)[C@@H]1CCCN1C(=O)[C@@H]1CCCN1C(=O)[C@H](CCCN=C(N)N)NC(=O)[C@H](Cc1c[nH]c2ccccc12)NC(=O)[C@@H](N)CCCN=C(N)N)C(=O)N[C@@H](CCCN=C(N)N)C(=O)N[C@@H](CCCN=C(N)N)C(=O)N1CCC[C@H]1C(=O)N1CCC[C@H]1C(=O)N[C@H](C(=O)N[C@@H](CCCN=C(N)N)C(=O)N1CCC[C@H]1C(=O)N1CCC[C@H]1C(=O)N[C@@H](Cc1ccccc1)C(=O)N[C@@H](Cc1ccc(O)cc1)C(=O)N1CCC[C@H]1C(=O)O)[C@@H](C)CC [RWRPPIRRPPIRPPFYP]
MIC (Escherichia coli BW25113): 16 µM (≈ 35.2 µg/mL)

SMILES: CC[C@H](C)[C@H](NC(=O)[C@H](CCC(N)=O)NC(=O)[C@@H]1CCCN1C(=O)[C@H](CC(=O)O)NC(=O)[C@H](Cc1ccccc1)NC(=O)[C@@H](NC(=O)[C@H](Cc1cnc[nH]1)NC(=O)[C@H](Cc1cnc[nH]1)NC(=O)[C@H](Cc1ccccc1)NC(=O)[C@@H](N)Cc1ccccc1)[C@@H](C)CC)C(=O)N[C@@H](CCCCN)C(=O)N[C@@H](CO)C(=O)NCC(=O)N[C@@H](CC(C)C)C(=O)N[C@@H](CC(C)C)C(=O)N[C@H](C(=O)N[C@@H](CO)C(=O)N[C@@H](CCSC)C(=O)N[C@@H](Cc1ccc(O)cc1)C(=O)N[C@@H](CC(=O)O)C(=O)O)C(C)C [FFHHIFDPQIKSGLLVSMYD]
MIC [23]: ≥ 122 µM

SMILES: CC[C@H](C)[C@H](NC(=O)[C@@H]1CCCN1C(=O)[C@H](Cc1c[nH]c2ccccc12)NC(=O)[C@H](CCCN=C(N)N)NC(=O)[C@H](Cc1ccccc1)NC(=O)[C@@H](N)CCCN=C(N)N)C(=O)N[C@@H](CCCN=C(N)N)C(=O)N[C@@H](CCCN=C(N)N)C(=O)N[C@@H](CCCN=C(N)N)C(=O)N1CCC[C@H]1C(=O)N[C@H](C(=O)N[C@@H](CCCN=C(N)N)C(=O)N1CCC[C@H]1C(=O)N1CCC[C@H]1C(=O)N[C@@H](Cc1c[nH]c2ccccc12)C(=O)N[C@@H](Cc1ccc(O)cc1)C(=O)N[C@@H](CCCN=C(N)N)C(=O)O)[C@@H](C)CC [RFRWPIRRRPIRPPWYR]
MIC (Escherichia coli BW25113): 4 µM (≈ 9.64 µg/mL)

More lines, now with the values ahead:

MIC [1]: ≥ 74.2 µM
MIC [2]: > 74.2 µM
MIC [3]: > 74.2 µM
MIC [4]: > 74.2 µM
MIC [5]: ≥ 74.2 µM
SMILES: CC[C@H](C)[C@H](N)C(=O)N[C@@H](CC(C)C)C(=O)NCC(=O)N[C@@H](C)C(=O)N[C@@H](C)C(=O)N[C@@H](Cc1c[nH]c2ccccc12)C(=O)N[C@@H](CC(N)=O)C(=O)NCC(=O)N[C@@H](C)C(=O)N[C@@H](CCCCN)C(=O)N[C@@H](CO)C(=O)N[C@@H](CC(C)C)C(=O)N[C@@H](Cc1ccccc1)C(N)=O [ILGAAWNGAKSLF]

MIC [6]: > 20.2 µM
MIC [7]: 20.2 µM (≈ 32 µg/mL)
MIC [8]: > 20.2 µM
MIC [9]: > 20.2 µM
MIC [4]: > 20.2 µM
MIC [10]: > 20.2 µM
MIC [11]: 20.2 µM (≈ 32 µg/mL)
SMILES: NC(=O)CC[C@H](NC(=O)[C@H](Cc1cnc[nH]1)NC(=O)[C@H](CO)NC(=O)[C@H](CCCN=C(N)N)NC(=O)[C@H](Cc1ccccc1)NC(=O)[C@H](Cc1cnc[nH]1)NC(=O)[C@H](CCCN=C(N)N)NC(=O)[C@H](Cc1cnc[nH]1)NC(=O)[C@H](Cc1cnc[nH]1)NC(=O)[C@@H](N)CO)C(=O)N[C@@H](CS)C(=O)N[C@@H](CCCN=C(N)N)C(=O)O [SHHRHFRSHQCR]

MIC (Candida albicans): 48.1 µM (≈ 64 µg/mL)
MIC (Cryptococcus neoformans): ≥ 96.2 µM
MIC (Escherichia coli): 24 µM (≈ 32 µg/mL)
MIC (Bacillus subtilis): 24 µM (≈ 32 µg/mL)
MIC (Streptococcus pneumoniae): ≥ 48.1 µM
MIC (Salmonella typhimurium): 24 µM (≈ 32 µg/mL)
MIC (Saccharomyces cerevisiae): ≥ 96.2 µM
MIC (Serratia marcescens): ≥ 48.1 µM
MIC (Streptococcus mutans): 24 µM (≈ 32 µg/mL)
MIC (Pseudomonas putida): ≥ 48.1 µM
MIC (Staphylococcus aureus): 48.1 µM (≈ 64 µg/mL)
SMILES: CC(C)C[C@H](NC(=O)[C@H](CC(C)C)NC(=O)[C@H](CCCN=C(N)N)NC(=O)[C@H](Cc1cnc[nH]1)NC(=O)[C@@H](NC(=O)[C@H](CCCN=C(N)N)NC(=O)CNC(=O)[C@@H](NC(=O)[C@@H]1CCCN1)C(C)C)C(C)C)C(=O)N[C@@H](CCCN=C(N)N)C(=O)N[C@@H](CCCCN)C(=O)O [PVGRVHRLLRK]

MIC [12]: 22.8 µM (≈ 32 µg/mL)
MIC [13]: ≥ 45.5 µM
MIC [14]: ≥ 91.1 µM
MIC (Candida albicans C627): ≥ 91.1 µM
MIC [15]: 22.8 µM (≈ 32 µg/mL)
MIC [16]: ≥ 91.1 µM
MIC [17]: ≥ 91.1 µM
MIC [18]: ≥ 45.5 µM
SMILES: CC[C@H](C)[C@H](N)C(=O)N[C@@H](CCCCN)C(=O)N[C@@H](CCCCN)C(=O)N[C@@H](CCCN=C(N)N)C(=O)N[C@@H](Cc1c[nH]c2ccccc12)C(=O)N[C@@H](Cc1c[nH]c2ccccc12)C(=O)N[C@@H](Cc1c[nH]c2ccccc12)C(=O)N[C@@H](Cc1ccccc1)C(=O)N[C@@H](CCCN=C(N)N)C(=O)O [IKKRWWWFR]
